{
  "source": "patent US11897851B2",
  "about": "“Heterocyclic GLP-1 agonists” (Gasherbrum Bio, Inc., priority 2021, dated 2024)",
  "data": [
    {"molecular_target": "T1, GLP-1 Receptor (Homo sapiens, UniProt P43220)", "T1 construct": "host or cells: HEK293/GLP1R/CRE-LUC (HEK293/CRE-Luc stably expressing the GLP-1 receptor)", "T1 sequence (P43220 24-463, species assumed)": "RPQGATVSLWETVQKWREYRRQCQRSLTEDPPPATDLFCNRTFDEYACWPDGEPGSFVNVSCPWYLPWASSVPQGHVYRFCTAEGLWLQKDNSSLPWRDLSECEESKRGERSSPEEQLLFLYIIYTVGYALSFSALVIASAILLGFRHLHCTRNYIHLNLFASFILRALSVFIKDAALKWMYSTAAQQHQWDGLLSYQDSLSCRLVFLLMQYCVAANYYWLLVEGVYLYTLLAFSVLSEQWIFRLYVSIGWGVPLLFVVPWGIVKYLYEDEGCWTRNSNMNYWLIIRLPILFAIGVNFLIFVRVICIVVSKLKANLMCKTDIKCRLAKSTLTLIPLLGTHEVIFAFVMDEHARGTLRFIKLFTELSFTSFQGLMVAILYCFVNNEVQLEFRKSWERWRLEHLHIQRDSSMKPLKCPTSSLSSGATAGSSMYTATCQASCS", "assay": "GLP-1R agonist cAMP stimulation assay (HEK293/GLP1R/CRE-LUC cells, Cisbio cAMP dynamic 2 kit);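 further: compounds tested in half-log serial dilution, cAMP detected with cAMP-d2 and anti-cAMP cryptate antibody reagents after 1 h at room temperature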", "assay_type": "cell-based", "details": "HEK293/CRE-Luc cell line stably expressing the GLP-1 Receptor; 1000 cells/well; 30 min at 37° C.; 0.5 mM IBMX, 0.1% BSA; read-out: GLP1R cAMP Stimulation DR: EC50", "units": {"EC50": "nM"}, "values": [
      {"molecule": "O=C(O)/C=C/c1nnc(CN2CCC(c3cccc(OCc4ccc(Cl)cc4F)n3)CC2)n1CC1CCOC1", "note": "(centres unmarked) [Compound 232, (E)-3-(5-((4-(6-((4-chloro-2-fluorobenzyl)oxy)pyridin-2-yl)piperidin-1-yl)methyl)-4-((tetrahydrofuran-3-yl)methyl)-4H-1,2,4-triazol-3-yl)acrylic acid]", "EC50": 1.2},
      {"molecule": "COC1(Cn2c(/C=C/C(=O)O)cnc2CN2CCC(c3cccc4c3OC(C)(c3ccc(Cl)cc3F)O4)CC2)CCC1", "note": "(centres unmarked) [Compound 166, (E)-3-(2-((4-(2-(4-chloro-2-fluorophenyl)-2-methylbenzo[d][1,3]dioxol-4-yl)piperidin-1-yl)methyl)-1-((1-methoxycyclobutyl)methyl)-1H-imidazol-5-yl)acrylic acid]", "EC50": 0.069},
      {"molecule": "CC(C)(Oc1ccc(CN2CCC(c3cccc(OCc4ccc(Cl)cc4F)n3)CC2)nc1)C(=O)O", "note": "[Compound 122, 2-((6-((4-(6-((4-chloro-2-fluorobenzyl)oxy)pyridin-2-yl)piperidin-1-yl)methyl)pyridin-3-yl)oxy)-2-methylpropanoic acid]", "EC50": "> 1000"},
      {"molecule": "CCn1cncc1Cn1c(/C=C(\\C)C(=O)O)cnc1CN1CCC(c2cccc3c2O[C@](C)(c2ccc(Cl)cc2F)O3)CC1", "note": "[Compound 138b, (R,E)-3-(2-((4-(2-(4-chloro-2-fluorophenyl)-2-methylbenzo[d][1,3]dioxol-4-yl)piperidin-1-yl)methyl)-1-((1-ethyl-1H-imidazol-5-yl)methyl)-1H-imidazol-5-yl)-2-methylacrylic acid]", "EC50": 0.66},
      {"molecule": "CCc1ncoc1Cn1c(/C=C/C(=O)O)cnc1CN1CCC(c2cccc3c2OC(C)(c2ccc(Cl)cc2F)O3)CC1", "note": "(centres unmarked) [Compound 184, (E)-3-(2-((4-(2-(4-chloro-2-fluorophenyl)-2-methylbenzo[d][1,3]dioxol-4-yl)piperidin-1-yl)methyl)-1-((4-ethyloxazol-5-yl)methyl)-1H-imidazol-5-yl)acrylic acid]", "EC50": 0.24},
      {"molecule": "CCn1cncc1Cn1c(/C=C(\\C)C(=O)O)cnc1CN1CCC(c2cccc3c2OC[C@@H](c2ccc(Cl)cc2)O3)CC1", "note": "[Compound 208a, (R,E)-3-(2-((4-(2-(4-chlorophenyl)-2,3-dihydrobenzo [b][1,4]dioxin-5-yl)piperidin-1-yl)methyl)-1-((1-ethyl-1H-imidazol-5-yl)methyl)-1H-imidazol-5-yl)-2-methylacrylic acid]", "EC50": 0.011},
      {"molecule": "COCCn1c(CCC(=O)O)cnc1CN1CCC(c2cccc3c2OC(C)(c2ccc(Cl)cc2F)O3)CC1", "note": "(centres unmarked) [Compound 237, 3-(2-((4-(2-(4-chloro-2-fluorophenyl)-2-methylbenzo[d][1,3]dioxol-4-yl)piperidin-1-yl)methyl)-1-(2-methoxyethyl)-1H-imidazol-5-yl)propanoic acid]", "EC50": 0.29},
      {"molecule": "Cc1cc(CCC(=O)O)cnc1CN1CCC(c2cccc(OCc3ccc(Cl)cc3F)n2)CC1", "note": "[Compound 117]", "EC50": 3300},
      {"molecule": "C/C(=C\\c1cnc(CN2CCC(c3cccc4c3O[C@](C)(c3ccc(Cl)cc3)O4)CC2)n1C[C@@H]1CCO1)C(=O)O", "note": "[Compound 134b, (E)-3-(2-((4-((R)-2-(4-chlorophenyl)-2-methylbenzo[d][1,3]dioxol-4-yl)piperidin-1-yl)methyl)-1-(((S)-oxetan-2-yl)methyl)-1H-imidazol-5-yl)-2-methylacrylic acid]", "EC50": 17},
      {"molecule": "CC1(c2ccc(Cl)cc2F)Oc2cccc(C3CCN(Cc4ncc(/C=C/C(=O)O)n4C[C@H]4CCCO4)CC3)c2O1", "note": "(stereo partly drawn) [Compound 160, (E)-3-(2-((4-(2-(4-chloro-2-fluorophenyl)-2-methylbenzo[d][1,3]dioxol-4-yl)piperidin-1-yl)methyl)-1-(((R)-tetrahydrofuran-2-yl)methyl)-1H-imidazol-5-yl)acrylic acid]", "EC50": 0.12},
      {"molecule": "Cc1cc(-c2nnc(C(F)(F)F)[nH]2)cnc1CN1CCC(c2cccc3c2OC(C)(c2ccc(Cl)cc2)O3)CC1", "note": "(centres unmarked) [Compound 265, 2-({4-[2-(4-chlorophenyl)-2-methyl-2H-1,3-benzodioxol-4-yl]piperidin-1-yl}methyl)-3-methyl-5-[5-(trifluoromethyl)-4H-1,2,4-triazol-3-yl]pyridine]", "EC50": 4.5},
      {"molecule": "Cc1cc(-c2n[nH]c(=O)o2)cnc1CN1CCC(c2cccc3c2OC(C)(c2ccc(Cl)cc2F)O3)CC1", "note": "(centres unmarked) [Compound 254, 5-[6-({4-[2-(4-chloro-2-fluorophenyl)-2-methyl-2H-1,3-benzodioxol-4-yl]piperidin-1-yl}methyl)-5-methylpyridin-3-yl]-2,3-dihydro-1,3,4-oxadiazol-2-one]", "EC50": 10},
      {"molecule": "COCCc1cc(-c2nnc(C(F)(F)F)[nH]2)cnc1CN1CCC(c2cccc3c2O[C@@](C)(c2ccc(C#N)cc2F)O3)CC1", "note": "[Compound 260, 3-fluoro-4-[(2S)-4-(1-{[3-(2-methoxyethyl)-5-[5-(trifluoromethyl)-4H-1,2,4-triazol-3-yl]pyridin-2-yl]methyl}piperidin-4-yl)-2-methyl-2H-1,3-benzodioxol-2-yl]benzonitrile]", "EC50": 2.3},
      {"molecule": "COCCc1cc(-c2noc(=O)[nH]2)cnc1CN1CCC(c2cccc3c2OC(C)(c2ccc(Cl)cc2F)O3)CC1", "note": "(centres unmarked) [Compound 268, 3-[6-({4-[2-(4-chloro-2-fluorophenyl)-2-methyl-2H-1,3-benzodioxol-4-yl]piperidin-1-yl}methyl)-5-(2-methoxyethyl)pyridin-3-yl]-4,5-dihydro-1,2,4-oxadiazol-5-one]", "EC50": 7.7},
      {"molecule": "C[C@]1(c2ccc(Cl)cc2F)Oc2cccc(C3CCN(Cc4ncc(/C=C/C(=O)O)n4C[C@@H]4CCS4(=O)=O)CC3)c2O1", "note": "(single isomer, unassigned) [Compound 173a]", "EC50": 0.0069},
      {"molecule": "O=C(O)/C=C/c1nnc(CN2CCC(c3cccc(OCc4ccc(Cl)cc4F)n3)CC2)n1C[C@@H]1CCO1", "note": "[Compound 225a, (S,E)-3-(5-((4-(6-((4-chloro-2-fluorobenzyl)oxy)pyridin-2-yl)piperidin-1-yl)methyl)-4-(oxetan-2-ylmethyl)-4H-1,2,4-triazol-3-yl)acrylic acid]", "EC50": 0.26},
      {"molecule": "CCn1cncc1Cn1c(CCC(=O)O)cnc1CN1CCC(c2cccc3c2OC[C@@H](c2ccc(Cl)cc2)O3)CC1", "note": "[Compound 245, (R)-3-(2-((4-(2-(4-chlorophenyl)-2,3-dihydrobenzo [b][1,4]dioxin-5-yl)piperidin-1-yl)methyl)-1-((1-ethyl-1H-imidazol-5-yl)methyl)-1H-imidazol-5-yl)propanoic acid]", "EC50": 0.15},
      {"molecule": "COCCc1cc(-c2nnn[nH]2)cnc1CN1CCC(c2cccc3c2OC(C)(c2ccc(Cl)cc2F)O3)CC1", "note": "(centres unmarked) [Compound 256, 2-({4-[2-(4-chloro-2-fluorophenyl)-2-methyl-2H-1,3-benzodioxol-4-yl]piperidin-1-yl}methyl)-3-(2-methoxyethyl)-5-(1H-1,2,3,4-tetrazol-5-yl)pyridine]", "EC50": 5},
      {"molecule": "COC1(Cn2c(/C=C/C(=O)O)cnc2CN2CCC(c3cccc4c3OC(C)(c3ccc(Cl)cc3F)O4)CC2)CC1", "note": "(centres unmarked) [Compound 196, (E)-3-(2-((4-(2-(4-chloro-2-fluorophenyl)-2-methylbenzo[d][1,3]dioxol-4-yl)piperidin-1-yl)methyl)-1-((1-methoxycyclopropyl)methyl)-1H-imidazol-5-yl)acrylic acid]", "EC50": 0.058},
      {"molecule": "Cc1cc(-c2nnc(C(F)(F)F)[nH]2)cnc1CN1CCC(c2cccc3c2O[C@@](C)(c2ccc(C#N)cc2F)O3)CC1", "note": "[Compound 286, 3-fluoro-4-[(2S)-2-methyl-4-[1-({3-methyl-5-[5-(trifluoromethyl)-4H-1,2,4-triazol-3-yl]pyridin-2-yl}methyl)piperidin-4-yl]-2H-1,3-benzodioxol-2-yl]benzonitrile]", "EC50": 1.38}
    ]}
  ]
}
